Laboratory results from the NIST ThermoML archive (doi:10.1021/je3011979).

Key:
[1] = xn = mol fraction of the nth substance listed; settings: 101 kPa, Liquid, Vibrating tube method
[2] = excess molar enthalpy (molar enthalpy of mixing); xn = mol fraction of the nth substance listed; settings: 101 kPa, Liquid, Calvet calorimetry

CCCOC(C)=O [propyl ethanoate] + CCCCCCCCC
Settings	excess molar enthalpy [kcal/mol]	mass density [kg/m3]
[1], 291.15 K, x1 = 0.0569	–	724.6
[1], 291.15 K, x1 = 0.1163	–	730.7
[1], 291.15 K, x1 = 0.1916	–	739
[1], 291.15 K, x1 = 0.282	–	750
[1], 291.15 K, x1 = 0.3583	–	760
[1], 291.15 K, x1 = 0.4338	–	770.9
[1], 291.15 K, x1 = 0.4846	–	778.7
[1], 291.15 K, x1 = 0.5686	–	792.4
[1], 291.15 K, x1 = 0.6289	–	803.2
[1], 291.15 K, x1 = 0.6876	–	814.4
[1], 291.15 K, x1 = 0.7441	–	826
[1], 291.15 K, x1 = 0.7948	–	837.1
[1], 291.15 K, x1 = 0.8162	–	841.9
[1], 291.15 K, x1 = 0.8844	–	858.5
[1], 291.15 K, x1 = 0.9349	–	871.7
[1], 291.15 K, x1 = 0.9464	–	874.9
[1], 291.15 K, x1 = 1	–	889.6
[1], 298.15 K, x1 = 0.0361	–	717.2
[1], 298.15 K, x1 = 0.0384	–	717.4
[1], 298.15 K, x1 = 0.1106	–	724.5
[1], 298.15 K, x1 = 0.2023	–	734.5
[1], 298.15 K, x1 = 0.2833	–	744.2
[1], 298.15 K, x1 = 0.3636	–	754.6
[1], 298.15 K, x1 = 0.4312	–	764.2
[1], 298.15 K, x1 = 0.5061	–	775.6
[1], 298.15 K, x1 = 0.5653	–	785.3
[1], 298.15 K, x1 = 0.6308	–	796.9
[1], 298.15 K, x1 = 0.6728	–	804.8
[1], 298.15 K, x1 = 0.7321	–	816.5
[1], 298.15 K, x1 = 0.7908	–	829
[1], 298.15 K, x1 = 0.8257	–	836.9
[1], 298.15 K, x1 = 0.8918	–	852.8
[1], 298.15 K, x1 = 0.9404	–	865.6
[1], 298.15 K, x1 = 1	–	882.5
[1], 318.15 K, x1 = 0.0217	–	700
[1], 318.15 K, x1 = 0.1046	–	707.7
[1], 318.15 K, x1 = 0.1791	–	715.4
[1], 318.15 K, x1 = 0.2659	–	725
[1], 318.15 K, x1 = 0.335	–	733.4
[1], 318.15 K, x1 = 0.4077	–	742.9
[1], 318.15 K, x1 = 0.4731	–	752.1
[1], 318.15 K, x1 = 0.5367	–	761.7
[1], 318.15 K, x1 = 0.5943	–	771
[1], 318.15 K, x1 = 0.6526	–	781.2
[1], 318.15 K, x1 = 0.7078	–	791.4
[1], 318.15 K, x1 = 0.7597	–	801.7
[1], 318.15 K, x1 = 0.8179	–	814.1
[1], 318.15 K, x1 = 0.8565	–	822.8
[1], 318.15 K, x1 = 0.8964	–	832.4
[1], 318.15 K, x1 = 0.9373	–	842.7
[1], 318.15 K, x1 = 1	–	859.8
[1], 328.15 K, x1 = 0.056	–	695.1
[1], 328.15 K, x1 = 0.1062	–	699.8
[1], 328.15 K, x1 = 0.1918	–	708.3
[1], 328.15 K, x1 = 0.2757	–	717.5
[1], 328.15 K, x1 = 0.3519	–	726.6
[1], 328.15 K, x1 = 0.429	–	736.7
[1], 328.15 K, x1 = 0.4999	–	746.7
[1], 328.15 K, x1 = 0.5709	–	757.6
[1], 328.15 K, x1 = 0.6217	–	766
[1], 328.15 K, x1 = 0.6881	–	777.7
[1], 328.15 K, x1 = 0.7461	–	788.7
[1], 328.15 K, x1 = 0.7857	–	796.8
[1], 328.15 K, x1 = 0.8318	–	806.6
[1], 328.15 K, x1 = 0.8801	–	817.6
[1], 328.15 K, x1 = 0.8853	–	818.8
[1], 328.15 K, x1 = 0.9429	–	833
[1], 328.15 K, x1 = 1	–	848.3
[2], 291.15 K, x1 = 0.1167	0.142	–
[2], 291.15 K, x1 = 0.2247	0.2261	–
[2], 291.15 K, x1 = 0.3093	0.2789	–
[2], 291.15 K, x1 = 0.379	0.3102	–
[2], 291.15 K, x1 = 0.4448	0.325	–
[2], 291.15 K, x1 = 0.5009	0.3305	–
[2], 291.15 K, x1 = 0.5447	0.3277	–
[2], 291.15 K, x1 = 0.5617	0.3248	–
[2], 291.15 K, x1 = 0.6139	0.3136	–
[2], 291.15 K, x1 = 0.6683	0.2921	–
[2], 291.15 K, x1 = 0.7299	0.2593	–
[2], 291.15 K, x1 = 0.7964	0.215	–
[2], 291.15 K, x1 = 0.8649	0.155	–
[2], 291.15 K, x1 = 0.9356	0.0848	–

CCCOC(C)=O [propyl ethanoate] + CCCCCCCCCC
Settings	excess molar enthalpy [kcal/mol]	mass density [kg/m3]
[1], 291.15 K, x1 = 0.0491	–	735.2
[1], 291.15 K, x1 = 0.1081	–	740.2
[1], 291.15 K, x1 = 0.2054	–	749.4
[1], 291.15 K, x1 = 0.2933	–	758.8
[1], 291.15 K, x1 = 0.372	–	768
[1], 291.15 K, x1 = 0.4514	–	778.3
[1], 291.15 K, x1 = 0.5221	–	788.4
[1], 291.15 K, x1 = 0.5892	–	798.8
[1], 291.15 K, x1 = 0.6468	–	808.4
[1], 291.15 K, x1 = 0.7079	–	819.6
[1], 291.15 K, x1 = 0.7955	–	837.5
[1], 291.15 K, x1 = 0.8151	–	841.8
[1], 291.15 K, x1 = 0.8554	–	851.2
[1], 291.15 K, x1 = 0.8932	–	860.5
[1], 291.15 K, x1 = 0.9454	–	874.3
[1], 291.15 K, x1 = 0.9719	–	881.5
[1], 291.15 K, x1 = 1	–	889.6
[1], 298.15 K, x1 = 0.0402	–	729.1
[1], 298.15 K, x1 = 0.1191	–	735.7
[1], 298.15 K, x1 = 0.2077	–	744
[1], 298.15 K, x1 = 0.2921	–	752.8
[1], 298.15 K, x1 = 0.3727	–	762.1
[1], 298.15 K, x1 = 0.4509	–	772
[1], 298.15 K, x1 = 0.5172	–	781.2
[1], 298.15 K, x1 = 0.5788	–	790.5
[1], 298.15 K, x1 = 0.6343	–	799.5
[1], 298.15 K, x1 = 0.6912	–	809.6
[1], 298.15 K, x1 = 0.7504	–	820.9
[1], 298.15 K, x1 = 0.7988	–	830.9
[1], 298.15 K, x1 = 0.8462	–	841.5
[1], 298.15 K, x1 = 0.8882	–	851.7
[1], 298.15 K, x1 = 0.9267	–	861.6
[1], 298.15 K, x1 = 0.9583	–	870.2
[1], 298.15 K, x1 = 1	–	882.5
[1], 318.15 K, x1 = 0.064	–	715.5
[1], 318.15 K, x1 = 0.1164	–	719.7
[1], 318.15 K, x1 = 0.1961	–	726.8
[1], 318.15 K, x1 = 0.2794	–	734.8
[1], 318.15 K, x1 = 0.3548	–	742.9
[1], 318.15 K, x1 = 0.4333	–	752.2
[1], 318.15 K, x1 = 0.4936	–	760
[1], 318.15 K, x1 = 0.5563	–	768.6
[1], 318.15 K, x1 = 0.6213	–	778.5
[1], 318.15 K, x1 = 0.6781	–	788
[1], 318.15 K, x1 = 0.7226	–	795.8
[1], 318.15 K, x1 = 0.7733	–	805.5
[1], 318.15 K, x1 = 0.8247	–	816.1
[1], 318.15 K, x1 = 0.867	–	825.5
[1], 318.15 K, x1 = 0.9092	–	835.5
[1], 318.15 K, x1 = 0.9463	–	844.9
[1], 318.15 K, x1 = 1	–	859.8
[1], 328.15 K, x1 = 0.0485	–	706.6
[1], 328.15 K, x1 = 0.1075	–	711.1
[1], 328.15 K, x1 = 0.196	–	718.6
[1], 328.15 K, x1 = 0.2952	–	728
[1], 328.15 K, x1 = 0.3758	–	736.6
[1], 328.15 K, x1 = 0.4553	–	746
[1], 328.15 K, x1 = 0.5227	–	754.7
[1], 328.15 K, x1 = 0.5818	–	763
[1], 328.15 K, x1 = 0.6506	–	773.6
[1], 328.15 K, x1 = 0.7058	–	782.9
[1], 328.15 K, x1 = 0.7598	–	792.6
[1], 328.15 K, x1 = 0.8204	–	804.6
[1], 328.15 K, x1 = 0.8511	–	811.2
[1], 328.15 K, x1 = 0.8851	–	818.8
[1], 328.15 K, x1 = 0.9321	–	830.2
[1], 328.15 K, x1 = 0.958	–	836.9
[1], 328.15 K, x1 = 1	–	848.3
[2], 291.15 K, x1 = 0.0703	0.0935	–
[2], 291.15 K, x1 = 0.1623	0.18	–
[2], 291.15 K, x1 = 0.2528	0.2536	–
[2], 291.15 K, x1 = 0.3401	0.305	–
[2], 291.15 K, x1 = 0.4179	0.3344	–
[2], 291.15 K, x1 = 0.4892	0.3482	–
[2], 291.15 K, x1 = 0.5501	0.3489	–
[2], 291.15 K, x1 = 0.6049	0.3413	–
[2], 291.15 K, x1 = 0.615	0.3377	–
[2], 291.15 K, x1 = 0.6649	0.3196	–
[2], 291.15 K, x1 = 0.7166	0.2935	–
[2], 291.15 K, x1 = 0.7751	0.2524	–
[2], 291.15 K, x1 = 0.8324	0.202	–
[2], 291.15 K, x1 = 0.8924	0.14	–
[2], 291.15 K, x1 = 0.9524	0.0739	–
[2], 298.15 K, x1 = 0.1028	0.127	–
[2], 298.15 K, x1 = 0.2102	0.212	–
[2], 298.15 K, x1 = 0.3062	0.2768	–
[2], 298.15 K, x1 = 0.3924	0.3148	–
[2], 298.15 K, x1 = 0.4676	0.3332	–
[2], 298.15 K, x1 = 0.5348	0.3384	–
[2], 298.15 K, x1 = 0.5925	0.3334	–
[2], 298.15 K, x1 = 0.6163	0.3258	–
[2], 298.15 K, x1 = 0.6615	0.3119	–
[2], 298.15 K, x1 = 0.71	0.2856	–
[2], 298.15 K, x1 = 0.7601	0.2572	–
[2], 298.15 K, x1 = 0.8123	0.215	–
[2], 298.15 K, x1 = 0.8626	0.169	–
[2], 298.15 K, x1 = 0.9119	0.118	–
[2], 298.15 K, x1 = 0.9581	0.0619	–
[2], 318.15 K, x1 = 0.1083	0.133	–
[2], 318.15 K, x1 = 0.2064	0.2204	–
[2], 318.15 K, x1 = 0.3068	0.2894	–
[2], 318.15 K, x1 = 0.3885	0.326	–
[2], 318.15 K, x1 = 0.4625	0.3456	–
[2], 318.15 K, x1 = 0.5203	0.3475	–
[2], 318.15 K, x1 = 0.571	0.3423	–
[2], 318.15 K, x1 = 0.6098	0.3325	–
[2], 318.15 K, x1 = 0.6588	0.3176	–
[2], 318.15 K, x1 = 0.7129	0.2928	–
[2], 318.15 K, x1 = 0.7682	0.2588	–
[2], 318.15 K, x1 = 0.8288	0.212	–
[2], 318.15 K, x1 = 0.8862	0.153	–
[2], 318.15 K, x1 = 0.948	0.0829	–
